# Results published in EP4782453A1 (Beyang Therapeutics Co., Ltd., priority 2023, dated 2025).
# Molecular target: T1, Menin-MLL (Homo sapiens, UniProt O00255)
# T1 construct: His-Menin (M1-L615 end); purchased BIORTUS BP9210
# T1 sequence (O00255 1-615 isoform O00255-1): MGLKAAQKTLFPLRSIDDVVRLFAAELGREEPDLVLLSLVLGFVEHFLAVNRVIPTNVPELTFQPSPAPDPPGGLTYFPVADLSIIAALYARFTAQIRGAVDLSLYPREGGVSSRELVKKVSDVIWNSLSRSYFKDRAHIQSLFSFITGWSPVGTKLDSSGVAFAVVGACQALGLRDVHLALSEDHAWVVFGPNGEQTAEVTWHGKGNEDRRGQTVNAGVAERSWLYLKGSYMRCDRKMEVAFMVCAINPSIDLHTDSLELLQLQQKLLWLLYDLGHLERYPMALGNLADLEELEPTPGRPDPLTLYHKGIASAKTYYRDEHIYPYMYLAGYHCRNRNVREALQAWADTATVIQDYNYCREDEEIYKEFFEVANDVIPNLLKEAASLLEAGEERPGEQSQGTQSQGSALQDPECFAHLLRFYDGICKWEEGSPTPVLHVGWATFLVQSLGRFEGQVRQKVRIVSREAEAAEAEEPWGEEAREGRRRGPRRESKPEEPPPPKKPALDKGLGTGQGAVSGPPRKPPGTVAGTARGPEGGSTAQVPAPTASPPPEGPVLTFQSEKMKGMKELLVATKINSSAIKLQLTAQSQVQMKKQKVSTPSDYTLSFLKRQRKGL
# Experiment: Inhibitory activity against Menin-MLL binding (fluorescence polarization)
# Conditions: Menin-MLL IC50, fluorescence polarization; 150 nM His-Menin, 15 nM FITC-MLL; 25°C for 60 min
# Method: • His-Menin (M1-L615 end), purchased from BIORTUS, Catalog Number: BP9210; and • FITC-MLL4-43, purchased from GenScript, Catalog Number: C491HFF190-3/PE1324.
# In a 10 µL reaction solution (20 mM HEPES, pH 7.5, 50 mM NaCl, 1 mM DTT, 0.01% BSA) containing any compound from the examples, 150 nM His-Menin was added to a 384-well plate (Corning, Model: 4514). Each concentration was set up in duplicate wells. After centrifugation at 1000 RPM for 1 min, the plate was incubated at 25°C for 15 min. Then, 15 nM […] (20 mM HEPES, pH 7.5, 50 mM NaCl, 1 mM DTT, 0.01% BSA) was added to a 384-well plate. After centrifugation at 1000 RPM for 1 min, the reaction proceeded at 25°C for 60 min. Changes in fluorescence polarization were measured using a plate reader (PerkinElmer, Envision 2104). Based on the measured signals, the binding inhibition rate of the compound at each concentration was calculated, and the IC50 (half-maximal inhibitory concentration) of the compound was determined using statistical analysis software GraphPad Prism (GraphPad Software, Inc.) by means of a nonlinear fitting formula: 4-Parameter Logistic Model or Sigmoidal Dose-Response Model: Y = Bottom + (Top−Bottom)/(1 + 10^((LogIC50−X) × Hill Slope)), [formula] in which X indicates the logarithm of compound concentration, Y indicates a fluorescence polarization mP value, and Top and Bottom indicate the maximum and minimum readouts of fluorescence polarization mP values. Table 1: Inhibitory Activity of Compounds Against Menin-MLL Binding
row,SMILES,IC50
1,"CCS(=O)(=O)N[C@H]1CC[C@H](CN2CCC(c3cc(-c4ccc(F)cc4C(=O)N(CC(F)F)C(C)C)c4cnc(C)cn34)CC2)CC1 [Example 154, N-(2,2-difluoroethyl)-5-fluoro-2-[3-methyl-6-(1-{[(1r,4r)-4-ethanesulfonamidocyclohexyl]methyl}piperidin-4-yl)pyrrolo[1,2-a]pyrazin-8-yl]-N-(isopropyl)benzamide]",166 nM
2,COCCN(C(=O)c1cc(F)ccc1-c1cc(C2CN(C(CCCN3C[C@H]4C[C@@H]3CO4)C(C)C)C2)cn2c(C)ncc12)C(C)C (some centres unmarked) [Example 467],5 nM
3,"CCN(C(=O)c1cc(F)ccc1-c1cc([C@@H]2CCN(C[C@]3(O)CC[C@@H](NS(=O)(=O)CC)CC3)C2)cc2c1cnn2C)C(C)C [Compound 55-2-1, N-ethyl-5-fluoro-2-[1-methyl-6-[(3S)-1-{[(1s,4s)-4-ethanesulfonamido-1-hydroxylcyclohexyl]methyl}pyrrolidin-3-yl]-1H-indazol-4-yl]-N-(isopropyl)benzamide]",343 nM
4,"CCS(=O)(=O)N[C@H]1CC[C@H](CN2CCCC(c3cc(-c4ccc(F)cc4C(=O)N(CC(F)F)C(C)C)c4cnn(C)c4c3)C2)CC1 (some centres unmarked) [Example 170, N-(2,2-difluoroethyl)-5-fluoro-2-[1-methyl-6-(1-{[(1r,4r)-4-ethanesulfonamidocyclohexyl]methyl}piperidin-3-yl)-1H-indazol-4-yl]-N-(isopropyl)benzamide]",60 nM
5,"CCS(=O)(=O)N(C)[C@H]1CC[C@H](CN2CC(c3cc(-c4ccc(F)cc4C(=O)N4CCOC[C@H]4C)c4cnn(C)c4c3)C2)CC1 [Example 174, N-methyl-N-[(1r,4r)-4-{[3-(4-{4-fluoro-2-[(3R)-3-methylmorpholin-4-carbonyl]phenyl}-1-methyl-1H-indazol-6-yl)azacyclobutan-1-yl]methyl}cyclohexyl]ethan-1-sulfonamide]",125 nM

# Same assay, conditions: fluorescence polarization; 150 nM His-Menin, 15 nM FITC-MLL; 25°C for 60 min; read-out: Menin-MLL IC50
row,SMILES,IC50
1,"CCN1CCN(CCC[C@H](C(C)C)N2CC(c3cc(-c4ccc(F)cc4C(=O)N(CC)C(C)C)c4cnn(C)c4c3)C2)CC1 [Example 394-2, N-ethyl-2-(6-{1-[(3R)-6-(4-ethylpiperazin-1-yl)-2-methylhexan-3-yl]azacyclobutan-3-yl}-1-methyl-1H-indazol-4-yl)-5-fluoro-N-(isopropyl)benzamide]",3.2 nM
2,"Cc1nc(F)c2c(-c3ccc(F)cc3C(=O)N3CCOC[C@H]3C)cc(C3CN(C(CC[C@H]4CN(C)CCO4)C(C)C)C3)cn12 (stereo partly drawn) [Example 308, (3R)-4-{5-fluoro-2-[1-fluoro-3-methyl-6-(1-{4-methyl-1-[(2S)-4-methylmorpholin-2-yl]pentan-3-yl}azacyclobutan-3-yl)imidazo[1,5-a]pyridin-8yl]benzoyl}-3-methylmorpholine]",49 nM
3,CCN1CCN(C[C@H](C(C)C)N2CC(c3cc(-c4ccc(F)cc4C(=O)N(CC)C(C)C)c4cnn(C)c4c3)C2)CC1 [Example 418],6.3 nM
4,CCN(C(=O)c1cc(F)ccc1-c1cc(N2CCN(C[C@H]3CC[C@H](NS(=O)(=O)CC)CC3)CC2)cn2c(C)ncc12)C(C)C [Example 84],165 nM
5,CCN(C(=O)c1cc(F)ccc1-c1cc(C2CN([C@@H](C)C3CCN(C(=O)NC)CC3)C2)cn2c(C)nc(F)c12)C(C)C [Example 283-2],2 nM
6,CCN(C(=O)c1cc(F)ccc1-c1cc(C2CN([C@@H](CCCN3CCN(C)CC3)C(C)C)C2)cn2c(C)nc(F)c12)C(C)C [Example 312-1],32 nM
7,CC(=O)N1CCC(CN2CC(c3cc(-c4ccc(F)cc4C(=O)N4CCOC[C@H]4C)c4cnn(C)c4c3)C2)CC1 [Example 177],217 nM
8,CCN(C(=O)c1cc(F)ccc1-c1cc(C2CN([C@H](CCCN3CCN(CCOC)C(=O)C3)C(C)C)C2)cn2c(C)ncc12)C(C)C [Example 496],3.8 nM
9,CC(=O)N1CC2CC(C1)N2CCC[C@H](C(C)C)N1CC(c2cc(-c3ccc(F)cc3C(=O)N3CCOC[C@H]3C)c3cnn(C)c3c2)C1 [Example 386],20 nM
10,"Cc1nc(F)c2c(-c3ccc(F)cc3C(=O)N3CCOC[C@H]3C)cc(C3CN([C@H](CN4CCNCC4)C(C)C)C3)cn12 [Example 367-2, (3R)-4-[5-fluoro-2-(1-fluoro-3-methyl-6-{1-[(2S)-3-methyl-1-(piperazin-1-yl)butan-2-yl]azacyclobutan-3-yl}imidazo[1,5-a]pyridin-8-yl)benzoyl]-3-methylmorpholine]",4 nM
11,CCN(C(=O)c1cc(F)ccc1-c1cc(C2CN([C@H](CCCN3CCN(C(C)=O)CC3)C(C)C)C2)cc2c1cnn2C)C(C)C [Example 407],33 nM
12,"Cc1nc(F)c2c(-c3ccc(F)cc3C(=O)N3CCOC[C@H]3C)cc(C3CN(C[C@H]4CC[C@H](c5ncno5)CC4)C3)cn12 [Example 207-1, (3R)-4-{5-fluoro-2-[1-fluoro-3-methyl-6-(1-{[(1r,4r)-4-(1,2,4-oxadiazol-5-yl)cyclohexyl]methyl}azacyclobutan-3-yl)imidazo[1,5-a]pyridin-8yl]benzoyl}-3-methylmorpholine]",111 nM
13,"Cc1ncc2c(-c3ccc(F)cc3C(=O)N(CC(F)F)C(C)C)cc(N3CCN(C(=O)[C@@H]4CCC(c5cccc(F)c5)N4)CC3)cn12 (stereo partly drawn) [Example 140, N-(2,2-difluoroethyl)-5-fluoro-2-(6-{4-[(2S)-5-(3-fluorophenyl)pyrrolidin-2-carbonyl]piperazin-1-yl}-3-methylimidazo[1,5-a]pyridin-8-yl)-N-(isopropyl)benzamide]",161 nM
14,CCN(C(=O)c1cc(F)ccc1-c1cc(N2CCN(C(=O)[C@@H]3CC4CCCCC4N3)CC2)cn2c(C)nc(Cl)c12)C(C)C (some centres unmarked) [Example 112],24 nM
15,COc1cc(-c2ccc(CCN3CCN(c4cc(-c5ccc(F)cc5C(=O)N5CCOC[C@H]5C)c5cnc(C)n5c4)CC3)cc2)nnc1OC [Example 86],152 nM
16,CC(=O)N1C2CC1CN(CCC[C@H](C(C)C)N1CC(c3cc(-c4ccc(F)cc4C(=O)N4CCOC[C@H]4C)c4c(F)nc(C)n4c3)C1)C2 [Example 345],18 nM
17,"Cc1nc(F)c2c(-c3ccc(F)cc3C(=O)N3CCOC[C@H]3C)cc(C3CN(C(CC[C@@H]4COCCN4C)C(C)C)C3)cn12 (stereo partly drawn) [Example 372, (3R)-4-{5-fluoro-2-[1-fluoro-3-methyl-6-(1-{4-methyl-1-[(3R)-4-methylmorpholin-3-yl]pentan-3-yl}azacyclobutan-3-yl)imidazo[1,5-a]pyridin-8-yl]benzoyl}-3-methylmorpholine]",32 nM
18,"CCN(C(=O)c1cc(F)ccc1-c1cc([C@H]2CCN(CC3(O)CCC(NS(=O)(=O)CC)CC3)C2)cc2c1cnn2C)C(C)C (stereo partly drawn) [Compound 55-1-2, N-ethyl-5-fluoro-2-[1-methyl-6-[(3R)-1-{[(1r,4r)-4-ethanesulfonamido-1-hydroxylcyclohexyl]methyl}pyrrolidin-3-yl]-1H-indazol-4-yl]-N-(isopropyl)benzamide]",120 nM
19,"COCC(=O)N1CCC(CN2CC(c3cc(-c4ccc(F)cc4C(=O)N4CCOC[C@H]4C)c4c(F)nc(C)n4c3)C2)CC1 [Example 241, 1-(4-{[3-(1-fluoro-8-{4-fluoro-2-[(3R)-3-methylmorpholin-4-carbonyl]phenyl}-3-methylimidazo[1,5-a]pyridin-6-yl)azacyclobutan-1-yl]methyl}piperidin-1-yl)-2-methoxyethan-1-one]",31.5 nM
20,Cc1nc(F)c2c(-c3ccc(F)cc3C(=O)N3[C@H](C)COC[C@H]3C)cc(C3CN(CC4CCN(C(=O)c5cnoc5)CC4)C3)cn12 [Example 233],42 nM

# Same assay, conditions: read-out: Menin-MLL IC50; fluorescence polarization; 150 nM His-Menin, 15 nM FITC-MLL; 25°C for 60 min
row,SMILES,IC50
1,"CCS(=O)(=O)N[C@H]1CC[C@@H](CN2CC(c3cc(-c4ccc(F)cc4C(=O)N4[C@H](C)COC[C@H]4C)c4c(F)nc(C)n4c3)C2)CC1 [Example 198, N-[(1s,4s)-4-{[3-(8-{2-[(3R,5R)-3,5-dimethylmorpholin-4-carbonyl]-4-fluorophenyl}-1-fluoro-3-methylimidazo[1,5-a]pyridin-6-yl)azacyclobutan-1-yl]methyl}cyclohexyl]ethan-1-sulfonamide]",4 nM
